In patent US8889704B2 (Array BioPharma Inc., priority 2011, dated 2014) one finds IC50 data, which are given here for 19 molecules.

What all share (format): biochemical
Experiment [1] addresses T1, GST-tagged recombinant full-length human Pim-2 (Homo sapiens, UniProt Q9P1W9).
T1 construct: GST-tagged recombinant full-length human Pim-2; GST
Nature of the experiment: PIM-2 Assay (as Example A). As to conditions: averaged IC50; 4 μM ATP, 1.0 μM PIM2tide, 1.5 nM Pim-2. The procedure, abridged:
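Radiometric filter-binding assay: GST-tagged full-length human Pim-2 (1.5 nM) phosphorylates 1.0 μM PIM2tide with 4 μM [γ-33P]ATP for 60 min at 22 °C in pH 7.4 MOPS buffer, 2% DMSO. 10-point 3-fold dilutions from 10 μM top dose; IC50 from 4-parameter fit of percent of control.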

For another experiment, the target named is PIM-1 (Homo sapiens, UniProt P11309). Description: Enzyme PIM-1 Assay ([33P]ATP incorporation into PIM2tide, filter plate). To be noted: averaged IC50; 35 μM ATP, 7.5 μM PIM2tide, 0.25 nM PIM-1, 60 min at 22° C. The procedure, abridged: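 Radiometric assay: 0.25 nM PIM-1 phosphorylates 7.5 μM PIM2tide with 35 μM [γ-33P]ATP in 20 mM MOPS pH 7.4, 10 mM MgCl2, 1 mM DTT, 0.005% Tween-20, 60 min at 22 °C. Product captured on P81 filters, scintillation counted; 10-point 3-fold curve from 10 μM top, 2% DMSO, IC50 by 4-parameter logistic fit of POC.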

The target in the next experiment is recombinant rat PIM-3 (Rattus norvegicus, UniProt O70444). Description: PIM-3 Assay (as Example A). To be noted: averaged IC50; 30 μM ATP, 3.75 μM PIM2tide, 0.5 nM PIM-3. In outline: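 Recombinant rat PIM-3 (0.5 nM) with 3.75 μM PIM2tide and 30 μM [γ-33P]ATP in MOPS pH 7.4 buffer, 60 min at 22 °C; labelled peptide captured on phosphocellulose filters and counted by scintillation. 10-point curve (top dose 10 μM, 2% DMSO); IC50 from 4-parameter fit of percent of control.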

Counter-ions that a name gives are not always drawn.

T1 sequence (Q9P1W9 whole entry): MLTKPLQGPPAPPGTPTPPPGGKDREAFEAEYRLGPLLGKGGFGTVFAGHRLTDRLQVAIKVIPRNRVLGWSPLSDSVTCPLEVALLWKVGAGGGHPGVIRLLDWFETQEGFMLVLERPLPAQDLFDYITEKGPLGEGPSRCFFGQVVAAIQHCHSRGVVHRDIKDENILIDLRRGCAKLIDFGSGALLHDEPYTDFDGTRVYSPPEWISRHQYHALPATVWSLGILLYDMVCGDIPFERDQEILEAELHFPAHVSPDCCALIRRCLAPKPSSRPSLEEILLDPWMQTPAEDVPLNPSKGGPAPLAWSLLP
Chain of PIM-1 (P11309 whole entry, species assumed): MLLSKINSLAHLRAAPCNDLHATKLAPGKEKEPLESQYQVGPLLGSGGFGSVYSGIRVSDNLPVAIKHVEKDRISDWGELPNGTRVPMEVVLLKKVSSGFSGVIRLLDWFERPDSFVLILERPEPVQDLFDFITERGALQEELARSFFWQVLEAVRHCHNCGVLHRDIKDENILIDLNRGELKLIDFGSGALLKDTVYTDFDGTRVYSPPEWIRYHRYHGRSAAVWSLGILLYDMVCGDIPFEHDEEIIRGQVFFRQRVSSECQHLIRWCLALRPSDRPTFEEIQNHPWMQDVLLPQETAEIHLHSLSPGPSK

For the molecule `CC(=O)OCCOc1cc2nc(-c3nnc4ccc([C@@H](N5CC[C@H](N)C5)C(F)(F)F)cn34)ccc2cc1F` [Example 122, 2-(2-(6-((R)-1-((S)-3-aminopyrrolidin-1-yl)-2,2,2-trifluoroethyl)-[1,2,4]triazolo[4,3-a]pyridin-3-yl)-6-fluoroquinolin-7-yloxy)ethyl acetate hydrochloride], the IC50 in experiment [1] is over 100 nM; on PIM-1 it was 0.2 nM; on recombinant rat PIM-3, 0.7 nM.

In the case of `N[C@H]1CCN([C@H](c2ccc3nnc(-c4ccc5cc(F)c(OCCO)cc5n4)n3c2)C(F)(F)F)C1` [Example 123, 2-(2-(6-((R)-1-((S)-3-aminopyrrolidin-1-yl)-2,2,2-trifluoroethyl)-[1,2,4]triazolo[4,3-a]pyridin-3-yl)-6-fluoroquinolin-7-yloxy)ethanol hydrochloride], the half-maximal inhibitory concentration (IC50) in experiment [1] is 73 nM; on PIM-1, 0.2 nM; on recombinant rat PIM-3 it was 0.4 nM.

In the case of `COc1ccc2ccc(-c3nnc4ccc([C@@H](N5CC[C@H](N)C5)C(F)(F)F)cn34)nc2c1C` [Example 124, (S)-1-((R)-2,2,2-trifluoro-1-(3-(7-methoxy-8-methylquinolin-2-yl)-[1,2,4]triazolo[4,3-a]pyridin-6-yl)ethyl)pyrrolidin-3-amine hydrochloride], the IC50 was over 100 nM in experiment [1], 0.21 nM against PIM-1 and 0.7 nM on recombinant rat PIM-3.

Take `N[C@H]1CCN([C@H](c2ccc3nnc(-c4ccc5cc(F)cc(C6(CO)CC6)c5n4)n3c2)C(F)(F)F)C1` [Example 125, (1-(2-(6-((R)-1-((S)-3-aminopyrrolidin-1-yl)-2,2,2-trifluoroethyl)-[1,2,4]triazolo[4,3-a]pyridin-3-yl)-6-fluoroquinolin-8-yl)cyclopropyl)methanol dihydrochloride]: the IC50 amounted to 6.2 nM in experiment [1], 0.11 nM against PIM-1 and 0.4 nM at recombinant rat PIM-3.

Take `OCC1(c2cc(F)cc3ccc(-c4nnc5ccc([C@@H](N6CC[C@H](O)C6)C(F)(F)F)cn45)nc23)CC1` [Example 126, (S)-1-((R)-2,2,2-trifluoro-1-(3-(6-fluoro-8-(1-(hydroxymethyl)cyclopropyl)quinolin-2-yl)-[1,2,4]triazolo[4,3-a]pyridin-6-yl)ethyl)pyrrolidin-3-ol hydrochloride]: the IC50 in experiment [1] is over 100 nM; against PIM-1, 0.28 nM; on recombinant rat PIM-3 it was 1.9 nM.

As for `COc1cc(C)cc2ccc(-c3nnc4ccc([C@@H](N5CC[C@H](N)C5)C(F)(F)F)cn34)nc12` [Example 127, (S)-1-((R)-2,2,2-trifluoro-1-(3-(8-methoxy-6-methylquinolin-2-yl)-[1,2,4]triazolo[4,3-a]pyridin-6-yl)ethyl)pyrrolidin-3-amine hydrochloride], the 50% inhibitory concentration (IC50) was over 100 nM in experiment [1], 3.28 nM against PIM-1 and 11 nM at recombinant rat PIM-3.

For the molecule `Cc1cc(OC(C)C)c2nc(-c3nnc4ccc([C@@H](N5CC[C@H](N)C5)C(F)(F)F)cn34)ccc2c1` [Example 128, (S)-1-((R)-2,2,2-trifluoro-1-(3-(8-isopropoxy-6-methylquinolin-2-yl)-[1,2,4]triazolo[4,3-a]pyridin-6-yl)ethyl)pyrrolidin-3-amine hydrochloride], the IC50 is over 100 nM in experiment [1], 0.58 nM at PIM-1 and 0.7 nM at recombinant rat PIM-3.

Turning to `CC(C)Oc1cccc2ccc(-c3nnc4ccc([C@@H](N5C[C@@H](N)[C@@H](O)C5)C(F)(F)F)cn34)nc12` [Example 129, (3S,4R)-4-amino-1-((R)-2,2,2-trifluoro-1-(3-(8-isopropoxyquinolin-2-yl)-[1,2,4]triazolo[4,3-a]pyridin-6-yl)ethyl)pyrrolidin-3-ol dihydrochloride], the IC50 in experiment [1] is 621 nM; against PIM-1 it was 1.6 nM; on recombinant rat PIM-3 it was 7.7 nM.

Regarding `CC(C)(C)c1cccc2ccc(-c3nnc4ccc([C@@H](N5C[C@@H](N)[C@@H](O)C5)C(F)(F)F)cn34)nc12` [Example 130, (3S,4R)-4-amino-1-((R)-1-(3-(8-tert-butylquinolin-2-yl)-[1,2,4]triazolo[4,3-a]pyridin-6-yl)-2,2,2-trifluoroethyl)pyrrolidin-3-ol dihydrochloride], the figures for the half-maximal inhibitory concentration (IC50) (in experiment [1]; at PIM-1; at recombinant rat PIM-3) were 756 nM, 9.03 nM and 28 nM, respectively.

As to `COc1cc2nc(-c3nnc4ccc([C@@H](N5C[C@@H](N)[C@@H](O)C5)C(F)(F)F)cn34)ccc2cc1F` [Example 131, (3S,4R)-4-amino-1-((R)-2,2,2-trifluoro-1-(3-(6-fluoro-7-methoxyquinolin-2-yl)-[1,2,4]triazolo[4,3-a]pyridin-6-yl)ethyl)pyrrolidin-3-ol dihydrochloride], the results for the IC50 (in experiment [1]; at PIM-1; at recombinant rat PIM-3) were 787 nM, 2.18 nM and 17 nM, respectively.

Consider `CC(C)Oc1cc(F)cc2ccc(-c3nnc4ccc([C@@H](N5C[C@@H](N)[C@@H](O)C5)C(F)(F)F)cn34)nc12` [Example 132, (3S,4R)-4-amino-1-((R)-2,2,2-trifluoro-1-(3-(6-fluoro-8-isopropoxyquinolin-2-yl)-[1,2,4]triazolo[4,3-a]pyridin-6-yl)ethyl)pyrrolidin-3-ol dihydrochloride], for which the IC50 in experiment [1] is 538 nM; against PIM-1, 4.42 nM; on recombinant rat PIM-3, 16 nM.

For the molecule `N[C@H]1CCN([C@H](c2ccc3nnc(-c4ccc5cc(F)c(OCC6CC6)cc5n4)n3c2)C(F)(F)F)C1` [Example 134, (S)-1-((R)-1-(3-(7-(cyclopropylmethoxy)-6-fluoroquinolin-2-yl)-[1,2,4]triazolo[4,3-a]pyridin-6-yl)-2,2,2-trifluoroethyl)pyrrolidin-3-amine hydrochloride], the results for the IC50 (in experiment [1]; against PIM-1; on recombinant rat PIM-3) were 48 nM, 0.38 nM and 0.6 nM, respectively.

As to `CC(C)Oc1cc(F)cc2ccc(-c3nnc4ccc([C@H](N5CC[C@H](N)C5)C(F)(F)F)cn34)nc12` [Example 135, (S)-1-((S)-2,2,2-trifluoro-1-(3-(6-fluoro-8-isopropoxyquinolin-2-yl)-[1,2,4]triazolo[4,3-a]pyridin-6-yl)ethyl)pyrrolidin-3-amine hydrochloride], the 50% inhibitory concentration (IC50) in experiment [1] is 82 nM; against PIM-1, 1.41 nM; on recombinant rat PIM-3 it was 3 nM.

Turning to `COc1cc2nc(-c3nnc4ccc([C@H](N5CC[C@H](N)C5)C(F)(F)F)cn34)ccc2cc1F` [Example 136, (S)-1-((S)-2,2,2-trifluoro-1-(3-(6-fluoro-7-methoxyquinolin-2-yl)-[1,2,4]triazolo[4,3-a]pyridin-6-yl)ethyl)pyrrolidin-3-amine hydrochloride], the half-maximal inhibitory concentration (IC50) in experiment [1] is 96 nM; against PIM-1 it was 0.87 nM; on recombinant rat PIM-3, 5 nM.

In the case of `COc1cccc2ccc(-c3nnc4ccc([C@@H](N5C[C@@H](N)[C@@H](O)C5)C(F)(F)F)cn34)nc12` [Example 137, (3S,4R)-4-amino-1-((R)-2,2,2-trifluoro-1-(3-(8-methoxyquinolin-2-yl)-[1,2,4]triazolo[4,3-a]pyridin-6-yl)ethyl)pyrrolidin-3-ol dihydrochloride], the IC50 in experiment [1] is over 1000 nM; on PIM-1, 3.5 nM; at recombinant rat PIM-3 it was 34 nM.

Consider `COc1cc2nc(-c3nnc4ccc([C@@H](N5CC[C@H](N)C5)C(F)(F)F)cn34)ccc2cc1C` [Example 138, (S)-1-((R)-2,2,2-trifluoro-1-(3-(7-methoxy-6-methylquinolin-2-yl)-[1,2,4]triazolo[4,3-a]pyridin-6-yl)ethyl)pyrrolidin-3-amine hydrochloride], for which the concentration for half-maximal inhibition (IC50) in experiment [1] was over 100 nM; at PIM-1 it was 2.03 nM; at recombinant rat PIM-3 it was 9.5 nM.

Regarding `COc1ccc2ccc(-c3nnc4ccc([C@@H](N5CC[C@H](N)C5)C(F)(F)F)cn34)nc2c1` [Example 139, (S)-1-((R)-2,2,2-trifluoro-1-(3-(7-methoxyquinolin-2-yl)-[1,2,4]triazolo[4,3-a]pyridin-6-yl)ethyl)pyrrolidin-3-amine dihydrochloride], the values for the concentration for half-maximal inhibition (IC50) (in experiment [1]; against PIM-1; at recombinant rat PIM-3) were over 100 nM, 0.58 nM and 4.9 nM, respectively.

On to `COC[C@@H](C)Oc1cccc2ccc(-c3nnc4ccc([C@@H](N5CC[C@H](N)C5)C(F)(F)F)cn34)nc12` [Example 140, (S)-1-((R)-2,2,2-trifluoro-1-(3-(8-((R)-1-methoxypropan-2-yloxy)quinolin-2-yl)-[1,2,4]triazolo[4,3-a]pyridin-6-yl)ethyl)pyrrolidin-3-amine dihydrochloride], for which the 50% inhibitory concentration (IC50) in experiment [1] came to 54 nM; against PIM-1 it was 0.12 nM; on recombinant rat PIM-3, 0.5 nM.

Turning to `COC[C@H](C)Oc1cccc2ccc(-c3nnc4ccc([C@@H](N5CC[C@H](N)C5)C(F)(F)F)cn34)nc12` [Example 141, (S)-1-((R)-2,2,2-trifluoro-1-(3-(8-((S)-1-methoxypropan-2-yloxy)quinolin-2-yl)-[1,2,4]triazolo[4,3-a]pyridin-6-yl)ethyl)pyrrolidin-3-amine dihydrochloride], the IC50 worked out at 90 nM in experiment [1], 0.2 nM on PIM-1 and 0.9 nM at recombinant rat PIM-3.

Broadly, the IC50 is the midpoint of a concentration-inhibition curve.
